Measurements as given in PubChem BioAssay (NCI).
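Compound exposure: 48 hours, 5 concentrations, 96-well plates. The concentration for 50% growth inhibition is given as GI50. TGI: concentration producing complete growth inhibition.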

Experiments:
Assay in all cases: NCI-60 cell line screen, 48 h
[1] = test system: SW-620 colon
[2] = test system: MOLT-4 leukemia
[3] = test system: NCI-H460 lung
[4] = test system: SN12C renal
[5] = test system: T-47D breast
[6] = test system: K-562 leukemia
[7] = test system: SK-MEL-5 melanoma
[8] = test system: HCT-116 colon
[9] = test system: EKVX NSCLC
[10] = test system: HCT-15 colon
[11] = test system: DU-145 prostate
[12] = test system: TK-10 renal
[13] = test system: UACC-257 melanoma
[14] = test system: SNB-75 CNS
[15] = test system: MCF7 breast
[16] = test system: CCRF-CEM leukemia
[17] = test system: A498 renal
[18] = test system: OVCAR-4 ovarian
[19] = test system: UO-31 renal
[20] = test system: KM12 colon
[21] = test system: SF-295 CNS
[22] = test system: CAKI-1 renal
[23] = test system: SF-268 CNS
[24] = test system: PC-3 prostate
[25] = test system: BT-549 breast
[26] = test system: UACC-62 melanoma
[27] = test system: A549 NSCLC
[28] = test system: SF-539 CNS
[29] = test system: HT29 colon
[30] = test system: MDA-MB-231 breast
[31] = test system: HCC-2998 colon
[32] = test system: MALME-3M melanoma
[33] = test system: NCI/ADR-RES ovarian
[34] = test system: SK-MEL-28 melanoma
[35] = test system: COLO 205 colon
[36] = test system: LOX IMVI melanoma
[37] = test system: OVCAR-3 ovarian
[38] = test system: SR leukemia
[39] = test system: M14 melanoma
[40] = test system: SK-MEL-2 melanoma
[41] = test system: IGROV1 ovarian
[42] = test system: NCI-H226 lung
[43] = test system: HOP-62 NSCLC
[44] = test system: RXF 393 renal
[45] = test system: NCI-H23 lung
[46] = test system: MDA-MB-435
[47] = test system: RPMI-8226 leukemia
[48] = test system: ACHN renal
[49] = test system: SNB-19 CNS
[50] = test system: 786-0 renal
[51] = test system: HOP-92 NSCLC
[52] = test system: OVCAR-5 ovarian
[53] = test system: OVCAR-8 ovarian
[54] = test system: HS 578T breast
[55] = test system: HL-60(TB) leukemia
[56] = test system: SK-OV-3 ovarian
[57] = test system: U251 CNS
[58] = test system: NCI-H522 lung

C=C(C)[C@@]12C[C@H](OC(=O)[C@H](O)[C@@H](NC(=O)c3ccccc3)c3ccccc3)C(C)=C1[C@@H](OC(C)=O)C(=O)[C@@]1(C)C([C@@H]2OC(=O)c2cc(F)cc(F)c2)C2(OC(C)=O)CO[C@@H]2C[C@@H]1O (some centres undefined)
TGI [1]: > 10 µM
TGI [2]: 1.24 µM
TGI [3]: 9.22 µM
TGI [4]: > 4.51 µM
TGI [5]: > 8.57 µM
TGI [6]: > 6.66 µM
TGI [7]: > 10 µM
TGI [8]: 1.22 µM
TGI [9]: > 10 µM
TGI [10]: > 5.21 µM
TGI [11]: > 5.16 µM
TGI [12]: 9.66 µM
TGI [13]: 2.79 µM
TGI [14]: 973 nM
TGI [15]: > 10 µM
TGI [16]: 0.355 µM
TGI [17]: 3.03 µM
TGI [18]: > 10 µM
TGI [19]: > 10 µM
TGI [20]: > 3.26 µM
TGI [21]: > 10 µM
TGI [22]: > 10 µM
TGI [23]: > 7.16 µM
TGI [24]: > 10 µM
TGI [25]: 2.99 µM
TGI [26]: 3.26 µM
TGI [27]: > 6.61 µM
TGI [28]: 0.259 µM
TGI [29]: 1400 nM
TGI [30]: 2.22 µM
TGI [31]: 2.16 µM
TGI [32]: > 8.81 µM
TGI [33]: 6.63 µM
TGI [34]: > 10 µM
TGI [35]: 392 nM
TGI [36]: 2.21 µM
TGI [37]: 1.92 µM
TGI [38]: > 3.64 µM
TGI [39]: > 10 µM
TGI [40]: 2.28 µM
TGI [41]: > 10 µM
TGI [42]: > 10 µM
TGI [43]: > 5.79 µM
TGI [44]: 0.582 µM
TGI [45]: 3.14 µM
TGI [46]: 0.0818 µM
TGI [47]: 0.547 µM
TGI [48]: > 9.36 µM
TGI [49]: > 10 µM
TGI [50]: 3.3 µM
TGI [51]: > 10 µM
TGI [52]: 1.51 µM
TGI [53]: > 4.03 µM
TGI [54]: 0.215 µM
TGI [55]: 224 nM
TGI [56]: > 10 µM
TGI [57]: > 5.16 µM

N#Cc1ccc2[nH]cc(Cc3c[nH]c4ccc(C#N)cc34)c2c1
GI50 [1]: 17.8 µM
TGI [1]: > 50 µM
GI50 [2]: 7.53 µM
TGI [2]: 19.5 µM
GI50 [3]: 9.16 µM
TGI [3]: 23.5 µM
GI50 [4]: 17 µM
TGI [4]: > 50 µM
GI50 [5]: 10.6 µM
TGI [5]: 32.8 µM
GI50 [6]: 14.7 µM
TGI [6]: > 50 µM
GI50 [7]: 8.7 µM
TGI [7]: 17.7 µM
GI50 [8]: 10.9 µM
TGI [8]: 28.4 µM
GI50 [9]: 14.9 µM
TGI [9]: > 50 µM
GI50 [10]: 13.5 µM
TGI [10]: 42.2 µM
GI50 [11]: 16.3 µM
TGI [11]: > 50 µM
GI50 [12]: 13.5 µM
TGI [12]: 33.5 µM
GI50 [13]: 10.1 µM
TGI [13]: 23.4 µM
GI50 [14]: 20.4 µM
TGI [14]: > 50000 nM
GI50 [15]: 15.2 µM
TGI [15]: > 50 µM
GI50 [16]: 12.8 µM
TGI [16]: 39.4 µM
GI50 [17]: 10.1 µM
TGI [17]: 22 µM
GI50 [18]: 18.5 µM
TGI [18]: > 50 µM
GI50 [19]: 8.64 µM
TGI [19]: 20.3 µM
GI50 [20]: 9.88 µM
TGI [20]: 20.1 µM
GI50 [21]: 8.84 µM
TGI [21]: 22.4 µM
GI50 [22]: 8.92 µM
TGI [22]: 22.1 µM
GI50 [23]: 11.5 µM
TGI [23]: 31.7 µM
GI50 [24]: 9.86 µM
TGI [24]: 27.8 µM
GI50 [25]: 9.57 µM
TGI [25]: 20.7 µM
GI50 [26]: 8.42 µM
TGI [26]: 20.1 µM
GI50 [27]: 9.73 µM
TGI [27]: 24 µM
GI50 [28]: 8.64 µM
TGI [28]: 16.9 µM
GI50 [29]: 18.4 µM
TGI [29]: > 50000 nM
GI50 [30]: 10.3 µM
TGI [30]: 25.1 µM
GI50 [31]: 9.77 µM
TGI [31]: 18.6 µM
GI50 [32]: 6.98 µM
TGI [32]: 21.1 µM
GI50 [33]: 12.5 µM
TGI [33]: 36.3 µM
GI50 [34]: 17.4 µM
TGI [34]: > 50 µM
GI50 [35]: 15.8 µM
TGI [35]: > 50000 nM
GI50 [36]: 6.99 µM
TGI [36]: 18.9 µM
GI50 [37]: 16.7 µM
TGI [37]: 49 µM
GI50 [38]: 7.99 µM
TGI [38]: 36.7 µM
GI50 [39]: 10.9 µM
TGI [39]: 24.3 µM
GI50 [40]: 9.63 µM
TGI [40]: 21 µM
GI50 [41]: 12.3 µM
TGI [41]: 35.7 µM
GI50 [42]: 17.9 µM
TGI [42]: > 50 µM
GI50 [43]: 11.6 µM
TGI [43]: 28.5 µM
GI50 [44]: 10.7 µM
TGI [44]: 34.9 µM
GI50 [45]: 15.2 µM
TGI [45]: 35.4 µM
GI50 [46]: 11.4 µM
TGI [46]: 24 µM
GI50 [47]: 13.9 µM
TGI [47]: 49.7 µM
GI50 [48]: 12.2 µM
TGI [48]: 35.5 µM
GI50 [49]: 17.2 µM
TGI [49]: > 50 µM
GI50 [50]: 13.4 µM
TGI [50]: 38 µM
GI50 [51]: 8.52 µM
TGI [51]: 22.8 µM
GI50 [52]: 12.3 µM
TGI [52]: 29.8 µM
GI50 [53]: 10.2 µM
TGI [53]: 28.2 µM
GI50 [54]: 11.4 µM
TGI [54]: 25.7 µM
GI50 [58]: 7.45 µM
TGI [58]: 17.4 µM
GI50 [57]: 15.7 µM
TGI [57]: 48.5 µM
